In general, melting point refers to the temperature, or range, at which the solid turns liquid.

`COc1ccc(-c2cc(-c3ccccc3)[nH]c2C(=O)NCCCCCC(=O)NO)cc1` [Example 8] displayed a melting point of 142 °C. For `O=C(O)CCCCCNC(=O)c1[nH]c(-c2ccccc2)cc1-c1ccccc1` [Example 4, 6-(3,5-diphenyl-1H-pyrrole-2-carboxamide)hexanoic acid], the melting point lay in the range of 228 to 229 °C. Compound `COc1ccc(-c2[nH]c(C(=O)NCCCCCC(=O)NO)c(-c3ccccc3)c2[N+](=O)[O-])cc1` [Example 7] came in with a melting point of 126 to 127 °C.

Compound `CNNC(=O)NCCCCNC(=O)c1[nH]c(-c2ccc(OC)cc2)c([N+](=O)[O-])c1-c1cccs1` [Example 11, 1-(4-(5-(4-methoxyphenyl)-4-nitro-3-(thiophene-2-yl)-1H-pyrrole-2-carboxamide)butyl)-3-(2-methylamine)urea] came in with a melting point of 185 to 187 °C. For the compound `O=C(O)CCCCCNC(=O)c1[nH]c(-c2ccccc2)c([N+](=O)[O-])c1-c1ccccc1` [Example 5, 6-(4-nitro-3,5-diphenyl-1H-pyrrole-2-carboxamide)hexanoic acid], the melting point is 153 to 154 °C. The result for `COc1ccc(-c2cc(-c3ccccc3)c(C(=O)NCCCCCC(=O)NO)[nH]2)cc1` [Example 6] reads 157 to 158 °C.

These data come from patent publication US20080262073A1, “Pyrrolic Derivatives with Histone Deacetylase Inhibitory Activity” (priority 2005, published 2008).
